From a melting point compilation (Tetko et al.; mined from patent text by program, amines drawn as free bases though some values may be those of a salt)

SMILES | melting point
CCN(C(=O)N1CCN(c2cc(C)cc(C)c2)CC1)c1nc2ccccc2nc1OC | 145 to 147 °C
CCn1c2ccccc2c2cc(C(C#N)=C(C#N)c3ccc(C(F)(F)F)cc3)ccc21 | 180 to 182 °C
CCCCCOc1ccc(Cn2c(C)nc(Cl)c2COC(=O)NS(=O)(=O)c2ccc(C)cc2)c(Cl)c1 | 109 to 111 °C
Cc1cc(CC(=O)O)sc1C(=O)c1ccccc1 | 86 °C
COc1cc(O)c(CN2CCc3cc(O)ccc3C2)c(OC)c1 | 109 to 112 °C
Cc1c(NC(=O)CC(C)(C)C)cc2c(c1C)OC(C)(C)C2(O)c1cccc(C=O)c1 (stereo unspecified) | 189 to 190 °C
CC(=O)OC1=C(C=O)C=C2OCCC2C1 (stereo unspecified) | 68 to 70 °C
Cc1nccn1S(=O)(=O)c1c[nH]cn1 | 158 to 159 °C
CCOCc1nc2c(N)nc3cc(CCC(=O)N4CCOCC4)ccc3c2n1CC(C)(C)O | 118 to 119 °C
O=C(COc1cc(-c2ccccc2)nc2cccc(Cl)c12)N1CCOCC1 | 168 °C
N#Cc1ccc(NCc2cc3c(cc2O)CCO3)s1 | 158 to 160 °C
c1ccc(Cn2c3ccccc3c3cc(-c4nc(C5CC5)no4)sc32)cc1 | 140 to 141 °C
O=c1cc(-c2ccc(F)cc2)oc(N2CCOCC2)c1 | 216 to 217 °C
COc1cc(CCCC(=O)O)ccc1OCc1nc(-c2ccco2)oc1C | 129 to 130 °C
CNc1cc(Oc2ccc(Cl)cc2Cn2cncn2)ccc1[N+](=O)[O-] | 150 °C
O=c1[nH]c2cc([N+](=O)[O-])ccc2c(=O)n1N1CC=C(c2ccc(Cl)cc2)CC1 | 210 to 212 °C
O=c1cc(O)c2c([nH]1)CCCC2 | > 300 °C
CCOC(=O)N(c1ccc(Cl)cc1)c1ccccc1N=NC(NC(=O)CCl)(C(=O)OCC)C(=O)OCC | 80 to 85 °C
O=C1c2cccc3cccc(c23)C(=O)N1CCCCCO | 96.5 to 97.5 °C
COC(=O)c1cccc(C)c1N | 27 to 29 °C
COCOc1c(OC)cc(/C=C/C(=O)/C=C/c2cc(OC)c(OCOC)c(OC)c2)cc1OC | 146 to 148 °C
NC(=O)c1cccc(Oc2ccccc2)c1 | 127 to 128 °C
CSC1=Nc2cc(Cl)ccc2N(C)c2cscc21 | 156 to 158 °C
CC(=O)NC[C@H]1CN(c2ccc(N3CCC(=C(C#N)c4ccccn4)CC3)c(F)c2)C(=O)O1 | 265 to 267 °C
COc1cccc2c1Sc1c(OC)cccc1C2(CCOS(C)(=O)=O)CCOS(C)(=O)=O | 176 to 178 °C
O=C(O)C1Cc2c(c(Cl)cc3c(-c4cccc(F)c4)noc23)O1 (stereo unspecified) | 209 to 210 °C

SMILES | melting point
COc1csc(C=CC(=O)c2ccccc2)c1 | 104 °C
CCOC(=O)c1cc2n(C)c3ccccc3c(=O)n2n1 | 239 to 241 °C
COc1cc(Nc2c(C#N)cnc3cc(/C=C/CCCN4CCOCC4)c(OC)cc23)c(Cl)cc1Cl | 110 to 112 °C
O=C(O)COc1nn(Cc2ccccc2)cc1-c1ccccc1 | 132 to 133 °C
CCCn1c(=O)c2[nH]c(C(C)=Cc3ccccc3)nc2n(CCC)c1=O | 194 to 196 °C
CCOC(=O)N1CCC(O)(c2cccs2)CC1 | 242 °C
O=C(Nc1cnc2scnc2c1)c1cc2cc(F)ccc2n1Cc1cccc(F)c1 | 250 to 251 °C
CCN(C(=O)C1CC1)c1cccc(-c2ccc3nnc(C)n3n2)c1 | 149 to 151 °C
CNC(=O)c1ccccc1Nc1nc(Nc2ccc3c(c2)CCN(C[C@@H](O)C(F)(F)F)CC3)ncc1Cl | 188 to 191 °C
CC(C#Cc1cccc(Oc2nccs2)c1)N(O)C(N)=O (stereo unspecified) | 118 to 119 °C
N=C(N)c1ccncc1 | 136 to 140 °C
CCOC(=O)CN(C)CC=CC(=O)Nc1ccc2ncnc(Nc3cccc(Br)c3)c2c1 | 182 to 183 °C
COc1cc2c(Nc3ccc(Cl)cc3F)ncnc2cc1OCCCC(=O)N1CCN(C)CC1 | 248 to 250 °C
CCOC(=O)C(Cc1c[nH]c2ccccc12)(NC=O)C(=O)OCC | 179 to 180 °C
CCCCOCC(O)COc1ccc(-c2nc(-c3ccc(OCC(O)COCCCC)cc3O)nc(-c3c(C)cc(C)cc3C)n2)c(O)c1 (stereo unspecified) | 125 to 131 °C
Cc1nn(-c2ccc(Cl)cc2F)c(=O)[nH]1 | 115 °C
CC(=O)NC(Cc1ccccc1)C(=O)OCc1cc(C)cc(C)c1 (stereo unspecified) | 97 to 100 °C
CCc1[nH]n(C2CCCC2)c2nc(-c3ccccc3OC)nc(=O)c1-2 | 135 to 136 °C
O=[N+]([O-])c1nccn1CCI | 79 to 82 °C
c1ccc2c(c1)CCc1ccccc1C2CNc1ccncc1 | 145 to 146 °C
N=C(NO)c1ccc(-c2cccc(-c3nc4cc(C(=N)NO)ccc4[nH]3)c2)cc1 | 317 to 319 °C
Cc1nc(-c2ccccc2)nc(-c2cccc([N+](=O)[O-])c2)c1C(C)N1CCN(C)CC1 (stereo unspecified) | 130 to 131 °C
COc1ccccc1CN1CCC(=O)C(C(c2ccccc2)c2ccc(F)cc2)C1 (stereo unspecified) | 115 to 116 °C
CCOC(=O)c1csc(N2CCSCC2)n1 | 99 to 100 °C
CC[C@H](C)[C@H](Nc1nc2ccccc2c(=O)o1)C(=O)OC | 86 to 87 °C
O=C(Cn1c(-c2ccc(Cl)cc2)nc2cccnc21)NCC1CC1 | 228 to 229 °C

SMILES | melting point
Cn1cc(C(=O)O)c(=O)c2cc(F)c(-n3cccc3)cc21 | 284 to 285 °C
CCOC(=O)C1=C(C)NC(c2ncc[nH]2)=NC1c1ccccc1Cl (stereo unspecified) | 121 to 125 °C
Cn1c(=S)ccn(C2OC(CO)C(O)C2O)c1=O (stereo unspecified) | 146 to 148 °C
COc1ccc(NC=C2C(=O)OC(=O)c3cc4cccc(C)c4nc32)cc1OC | 280 to 281 °C
O=C1NC(=O)C(Cc2ccc(OCCn3cc(C(c4ccccc4)(c4ccccc4)c4ccccc4)c4ccccc43)cc2)S1 (stereo unspecified) | 66.6 to 70 °C
COc1cccc(C2(CNC(=O)Nc3c(C(C)C)cc(N)cc3C(C)C)CCN(c3ccccc3O)CC2)c1 | 207 to 208 °C
Cn1c2cc(Cl)cc(Cl)c2c2cc(C(=O)N3CCOCC3)sc21 | 224 to 226 °C
O=C(C1=Cc2ccccc2C1)C12CC3CC(CC(C3)C1)C2 | 124 to 125 °C
CCC(CC)N(Cc1ccc(C(=O)OC)cn1)S(=O)(=O)c1ccc(F)cc1 | 117 to 119 °C
COc1ccc(N=Nc2ccc(O)c(C(=O)Nc3ccc4[nH]ncc4c3)c2)cc1 | 276 to 277 °C
O=C(O)Cc1ccc(-n2cc(Cl)cn2)cc1Cl | 152 to 153 °C
CC(C)(C)OC(=O)N1CCN(C(=O)c2ccncc2)CC1 | 139 to 140 °C
Cc1cccc(-c2[nH]c(C(C)C)nc2-c2cccc(-c3ccc4c(c3)CCCS4)c2)n1 | 115 to 117 °C
O=[N+]([O-])CS(=O)(=O)c1ccc(Oc2ccccc2)cc1 | 118 to 120 °C
COc1ccc(NC(=O)c2ccc(-c3ccc(-c4noc(C)n4)cc3C)cc2)cc1OCCN | 150 to 153 °C
Cc1c(C)c(N2CCN(c3ccnc(Cl)n3)CC2)c(C)c2c1OC(C)(C)C2 | 192 to 193 °C
CC1(C)OC(=O)Nc2ccc(-c3cc(C(F)(F)F)cc(C(F)(F)F)c3)cc21 | 258 to 260 °C
Clc1ccc(Nc2nc3ccccc3c3[nH]c(C4CCCC4)nc23)cc1Cl | 114 to 115 °C
Cc1noc(C)c1Cn1cc(NC(=O)c2ccccn2)cn1 | 135 to 137 °C
CC1(C)OC(=O)Nc2ccc(OCCCCS(=O)c3ccc(Cl)c(Cl)c3)cc21 (stereo unspecified) | 138 to 139 °C
CN1C(=O)C2(COc3cc4c(cc32)OCCO4)c2c(C(=O)Nc3ccc(F)cc3)cccc21 (stereo unspecified) | > 250 °C
Cc1cccc(NC(=O)c2cc(Cl)cc(C)n2)n1 | 130 °C
O=c1nc(-c2cccc(Sc3ncccn3)n2)sc2ccccc12 | 245 to 246 °C
CCCOc1ccc(C(=O)CCC(=O)O)cc1 | 116 to 117 °C
COc1ccc2c(-c3ccccc3)nc(=NO)c(=O)n(C)c2c1 | 206 to 207 °C
COc1ccc(CSc2ccc([N+](=O)[O-])cc2CNCCc2ccccc2)cc1 | 80 to 85 °C

SMILES | melting point
CCNC(=O)Nc1ccc2c(c1Cl)C(c1ccccc1F)=NCC(=O)N2C | 155 to 160 °C
CS(=O)(=O)NC1(c2ccc(I)cc2)CC1 | 101 to 102 °C
COCC1CN(c2ccc(OCCC(C)O)cc2)C(=O)O1 (stereo unspecified) | 58 °C
c1ccc2c(c1)CSc1nncn1-2 | 188 to 190 °C
O=C=Nc1cc(NS(=O)(=O)CCl)c(Cl)cc1F | 102 °C
CC12C=CC(=O)C=C1C1OC1C1C2CCC2(C)C(=O)CCC12 (stereo unspecified) | 182 to 194 °C
N#Cc1cc(Br)c(OC(=O)OCOC(=O)COc2ccc(Cl)cc2Cl)c(Br)c1 | 88 to 89 °C
O=C(O)CS(=O)(=O)CCCCCNS(=O)(=O)c1ccc(Cl)cc1 | 193 to 194 °C
Cc1ccc2cccc(OCc3cc(N)ccc3Cl)c2n1 | 176 to 178 °C
CSC(=NCCSCc1csc(NC(=N)N)n1)NC#N | 127 to 134 °C
N#Cc1cccc(-c2nc(-c3ccc(C(=O)O)cc3)cc3cccnc23)c1 | > 300 °C
COc1cc2c(cc1Nc1ncc(Cl)c(Nc3c(OC)ccc4c3CN(S(C)(=O)=O)CC(=O)N4)n1)CCN(CC(=O)N(C)C)CC2 | 118 to 121 °C
CC(C)C(c1ccc2[nH]c(=O)cnc2c1)n1ccnc1 (stereo unspecified) | 194 °C
Cn1nnnc1-c1ccc(CCl)cc1 | 90 to 92 °C
COc1ccc(-c2nc(-c3ccc4c(c3)N(C)C(=O)CS4)cs2)cc1OC | 144 °C
COC(=O)[C@H](CSC(=O)N(C)C)NC(C)=O | 119 to 121 °C
CC(C)(C)NC(=O)c1cc(Cl)ccc1N | 126 to 127 °C
C=C(c1ccccc1)C(c1ccc(F)cc1)C(O)n1ncnc1S (stereo unspecified) | 54 to 58 °C
Cc1nc(N2CCC(Cc3ccc(C(F)(F)F)cc3)C2=O)sc1C(=O)NCc1ccc(F)cc1 (stereo unspecified) | 175 to 176 °C
COc1cccc(OC)c1CN1CC2CCCN2c2ncccc21 (stereo unspecified) | 211 to 213 °C
O=S1(=O)NC(C2CCCCC2)Nc2ccc(-c3ccccc3Cl)cc21 (stereo unspecified) | 233 to 236 °C
O=C(Nc1ccc(Oc2ccc(Br)cc2)nc1)c1ccccc1C(c1ccc(O)cc1)c1ccc(O)cc1 | 218 to 223 °C
CC(C)[C@](O)(CCc1ccc(O)cc1)CC(=O)O | 137 to 140 °C
